Here are results for two compounds from US20080280994A1, “Ascophyllum Compositions and Methods” (OCEAN NUTRITION CANDA LTD., priority 2004, published 2008).

One experiment deals with STZ-diabetic mice. Nature of the experiment: Sucrose challenge in diabetic mice. It is filed as in vivo. As to the method:
Animal model. Mice were made diabetic as described above and were allotted to eight groups (10 animals per group) as follows: […] Treatment and Measurement. Test samples were prepared at appropriate concentrations so that the required doses were delivered in a volume of 0.2 mL/20 g body weight. Acarbose was also dissolved in 0.5% CMC ([…]) and given at a dose of 25 mg/kg BW. Ten minutes after gavaging of samples, blood was sampled from tail vein for glucose measurement (Time 0). The animals were then gavaged with sucrose (20% in water at a dose of 2 g/kg body weight). […] A group of non-diabetic mice were given an equivalent volume of saline (0.2 ml/20 g BW).

Experiment [1] has as its system STZ-diabetic mice (KunMing strain). Nature of the experiment: 4-week treatment study in streptozotocin-induced diabetic mice. The class given is in vivo. As to the method: Animal Model. […] Diabetes was induced in mice with a single injection of streptozotocin (STZ). After fasting for 12 hrs, male mice with body weight above 20 g were given STZ dissolved in sodium citrate buffer via tail vein at a dose of 110 mg/kg body weight. […] Diabetic animals were divided into 5 groups (10 mice per group). Of these, 3 groups were treated with test samples, one group was a control group, receiving vehicle alone, and one group received metformin, an oral anti-diabetic agent. A sixth group, consisting of non-diabetic mice, was also included for comparison. They were treated with vehicle alone. Mice were housed 5 to a cage with free access to food and water. Test Samples and Dose. A. nodosum samples tested were as follows: 1) crude extract, CE 2) polyphenolic fraction, PPF 3) polysaccharide fraction, PSF Samples were dissolved in carboxymethylcellulose (CMC; 0.5%). Test sample solutions were prepared every morning at a concentration of 20 mg/ml in distilled water and given via gavage at a volume of 0.2 mL/20 g BW to deliver a dose of 200 mg/kg body weight. The control groups were gavaged with distilled water (0.2 mL/20 g BW). […] Animals were treated daily for 4 weeks. Measurements.

Setting [2] is: sucrose challenge, acarbose-treated mice.
Setting [3] is: STZ-diabetic mice, Day 28, dose 200 mg/kg, mean ± S.D.
Setting [4] is: STZ-diabetic mice, daily gavage, printed dose 200 mg/kg, mean ± S.D.

Structures are written as SMILES.

Regarding `C[C@H]1O[C@H](O[C@H]2[C@H](O)[C@@H](O)[C@@H](O[C@H]3[C@H](O)[C@@H](O)C(O)O[C@@H]3CO)O[C@@H]2CO)[C@H](O)[C@@H](O)[C@@H]1N[C@H]1C=C(CO)[C@@H](O)[C@H](O)[C@H]1O` (stereo partly drawn) [Acarbose, acarbose], the “serum glucose level, 0 min” value in the experiment with STZ-diabetic mice (sucrose challenge 2 g/kg, dose 25 mg/kg, 0 min) was determined as 15.64 ± 2.6 mmol/L. In the experiment with STZ-diabetic mice (sucrose challenge 2 g/kg, dose 25 mg/kg, 10 min), the “serum glucose level, 10 min” value is 21.71 ± 3.6 mmol/L. The “serum glucose level, 30 min” value in the experiment with STZ-diabetic mice (sucrose challenge 2 g/kg, dose 25 mg/kg, 30 min) turned out to be 24.67 ± 4.1 mmol/L. In addition, in the experiment with STZ-diabetic mice (sucrose challenge 2 g/kg, dose 25 mg/kg, 60 min), the “serum glucose level, 60 min” value turned out to be 19.80 ± 4.8 mmol/L. For the same compound, the “serum glucose level, 120 min” value in the experiment with STZ-diabetic mice (sucrose challenge 2 g/kg, dose 25 mg/kg, 120 min) turned out to be 14.29 ± 2.9 mmol/L. In the experiment on STZ-diabetic mice (setting [2]), the “area-under-the-curve (AUC) for glucose” value is 2340 units (mmol/L×120 min.) and the “reduction of glucose AUC versus STZ-mice” value is 33%.
Consider `CN(C)C(=N)N=C(N)N` [Metformin, metformin], for which, in experiment [1] (4-week treatment, P<0.05), the “serum glucose versus STZ-diabetic mice (in words)” value is “significantly lower serum glucose at each of the time points”. Besides, in experiment [1] (Day 28), the “blood total antioxidant level (in words)” value was “significant increases in antioxidant activity”, the “glycated Hb versus STZ-diabetic mice (in words)” value was “reduced” and the “total cholesterol versus STZ-diabetic mice (in words)” value is “reduced”. For the same compound, the “liver glycogen level (in words)” value in experiment [1] (Day 28, STZ-diabetic mice) is recorded as “significantly increased liver glycogen level”. Further, in experiment [1] (setting [3]), the “AntIoxidant activity (U/ml serum)” value came to 8.15 ± 1.8 U/ml serum, the “Glycated Hb” value came to 5.22 ± 0.5 mmol/L, the “Liver glycogen (mg/g wet tissue)” value came to 5.51 ± 0.8 mg/g wet tissue and the “Total Cholesterol” value is 1.93 ± 0.7 mmol/L. Moreover, in experiment [1] (setting [4]), the “Blood glucose (mM) Day 7” value was 13.04 ± 5.8 mM, the “Blood glucose (mM) Day 14” value is listed as 11.60 ± 4.1 mM, the “Blood glucose (mM) Day 21” value was found to be 12.38 ± 4.7 mM and the “Blood glucose (mM) Day 28” value turned out to be 13.59 ± 7.7 mM. Moreover, in experiment [1] (STZ-diabetic mice, start of treatment period, mean ± S.D.), the “Blood glucose (mM) Day 0” value was 13.50 ± 2.5 mM.
